Results on three compounds are retold here after article PMC8464850, “Sulfonium Ligands of the α7 nAChR” (Molecules, 2021).

Counter-ions that a name gives are not always drawn.

For data set [1], the target named is T1, α3β4 (Homo sapiens, UniProt P30926+P32297).
T1 construct: expressed in transfected cells; host or cells: Xenopus laevis oocytes (injected RNA)
In words: Activation of heteromeric nAChR by S1: α3β4. In kind it is cell-based. The text has this: Concatamers were used in order to obtain heteromeric receptors with known subunit composition. The β2-6-α4 concatamer was co-expressed with monomeric α4, β2, or α5 to obtain receptors with the composition α4(3)β2(2), α4(2)β2(3), or α4(2)β2(2)α5, respectively. A concatamer of five linked subunits was used to obtain the β3α4 β2α6β2 receptors. The α3β4 receptors were formed from the co-expression of α3 and β4 subunit monomers at equal ratios. Note that the data were initially measured relative to internal ACh control responses for each oocyte (Methods). Responses were subsequently adjusted for the relative values of the ACh controls and the ACh maximum responses for each of the various subtypes, determined in previous experiments.
Figure 6 Activation of heteromeric neuronal nAChR by S1. […] Data are the average peak currents (n = 6–8 oocytes ± SEM), measured relative to initial ACh control responses for each oocyte (concentrations listed in Methods). Responses were subsequently adjusted for the relative values of the ACh controls and the ACh maximum responses for each of the various subtypes, determined in previous experiments. […]
Solutions were applied from 96-well plates via disposable tips. […] The responses were calculated as both peak current amplitudes and net charge, as previously described. […] Multi-cell averages were calculated for comparisons of complex responses. […]

A short description of data set [2]: pKa by titration. The conditions noted are these: phenolic hydroxyl, data not shown for S9, S10, read-out: pKa. The class given is physicochemical. An excerpt: One of the questions that emerges from the data is why aromatic sulfoniums as structurally similar as S5, S9, and S10 provide different responses when coapplied with TQS. Indeed, compounds S5 and S9 virtually overlap in their best docked poses (Supplementary Figure S1), but the α7 response of S9 and TQS was dramatically greater than that of S5 and TQS (p < 0.001, Table S1). The formation of cation–pi interactions is a key feature of the binding of nicotinic orthosteric ligands, and the electronic distribution of the cation can be compared qualitatively in a series of compounds using molecular electrostatic potentials (MEPs). Analysis of the MEPs shown in Figure 9 reveal that the substituents on the benzene ring can modulate the intensity of the positive charge on the sulfonium center. Compound S5, for instance, has two hydroxyl groups which are strongly electron donating, and in comparison to compound S9, which has only one hydroxyl group, the intensity of the positive charge is […]. Another factor may be that a lone pair on the ortho hydroxyl substituent is donating electron density through space to the neighboring sulfonium, redistributing its positive charge. Compound S10 also has an ortho hydroxyl group, but unlike compound S5, compound S10 also has a nitro group, which is a strong electron-withdrawing group that may offset the electron-donating impact of the ortho hydroxyl group. Inspection of the MEP surface shown in Figure 9 does indicate that, relative to S5, the S10 sulfonium bears greater positive electrostatic potential. Given that compounds such as para-nitrophenol are acidic, with a pKa of ~7 for the phenolic hydroxyl, we also considered whether the deprotonated forms of S5, S9, and S10 might be accessible at the pH of our experiments.
Thus, all three compounds have varying proportions of the phenolic OH in the phenoxide form at the pH of Ringers solution used in the experiments. […] Future work on analogs of these compounds may be focused on substituents that are non-ionizable, and thus preserve a positive molecular charge derived from the sulfonium center.

T1 sequence (P32297 32-505): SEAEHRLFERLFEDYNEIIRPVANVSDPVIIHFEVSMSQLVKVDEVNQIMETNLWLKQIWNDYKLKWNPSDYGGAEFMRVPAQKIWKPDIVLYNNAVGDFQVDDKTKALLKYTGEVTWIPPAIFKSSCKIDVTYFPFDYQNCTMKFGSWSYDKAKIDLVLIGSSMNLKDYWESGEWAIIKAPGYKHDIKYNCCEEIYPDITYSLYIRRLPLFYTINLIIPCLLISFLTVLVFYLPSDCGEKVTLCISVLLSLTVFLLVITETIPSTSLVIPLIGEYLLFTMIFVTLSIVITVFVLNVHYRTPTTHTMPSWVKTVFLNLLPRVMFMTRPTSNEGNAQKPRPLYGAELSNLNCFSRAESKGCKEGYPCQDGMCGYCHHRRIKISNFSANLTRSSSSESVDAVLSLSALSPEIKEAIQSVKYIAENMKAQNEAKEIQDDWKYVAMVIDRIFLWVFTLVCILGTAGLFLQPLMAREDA
T1 sequence (P30926 22-498): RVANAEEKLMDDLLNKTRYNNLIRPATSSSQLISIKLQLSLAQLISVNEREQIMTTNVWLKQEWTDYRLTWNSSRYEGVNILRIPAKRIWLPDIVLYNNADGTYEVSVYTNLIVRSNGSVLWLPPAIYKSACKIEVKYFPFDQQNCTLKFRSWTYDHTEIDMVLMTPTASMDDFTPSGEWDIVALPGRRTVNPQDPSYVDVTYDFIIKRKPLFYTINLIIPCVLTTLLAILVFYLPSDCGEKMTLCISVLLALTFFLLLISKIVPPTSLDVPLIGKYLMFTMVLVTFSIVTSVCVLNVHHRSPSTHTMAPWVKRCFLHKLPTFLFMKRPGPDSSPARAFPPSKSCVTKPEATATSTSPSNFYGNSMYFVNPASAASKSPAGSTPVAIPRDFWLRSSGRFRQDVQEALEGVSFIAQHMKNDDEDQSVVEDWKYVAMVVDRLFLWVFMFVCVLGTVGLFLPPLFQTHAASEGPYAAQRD

For the compound `C[S+](C)C.[I-]` [Compound S1, trimethylsulfonium iodide], in data set [1] (peak currents relative to ACh maximum), the “IMax (S1 Activation)” value amounted to 1.18 ± 0.01. Besides, the EC50 in data set [1] (peak currents, unit inferred) worked out at 1420 ± 19.4 µM.
With `C[S+](C)c1ccc(O)cc1` [Compound S9, (4-hydroxyphenyl)dimethylsulfonium methyl sulfate], in data set [2], the pKa was about 7.3.
The same measure, in the same setting: for `C[S+](C)c1cc([N+](=O)[O-])ccc1O.[Br-]` [Compound S10, (2-hydroxy-5-nitrophenyl)dimethylsulfonium bromide] the value was about 5.
